Experiments:
[1] = system: rat hepatoma cells; assay: Cell toxicity by TCA-PTA precipitation analysis; type: cell-based; details: 40 mM
Experimental: After electrophoresis, the gels were stained, fixed, soaked in Enhance fluor solution, and dried following protocols supplied by the manufacturer. Dried gels were then exposed to X-ray film at −70° C. and signals on the resulting fluorograms were typically quantified by densitometry or phosphorimaging. Using the total radioactivity applied to each lane of the gel and the relative signal intensity of each band in that lane, the radioactivity associated with each apoprotein species was calculated. In some cases, gel bands were excised and the incorporated radioactivity measured directly by scintillation counting. As a control, the incorporation of [^35S]methionine into total cellular and secreted proteins was measured by TCA-PTA precipitation, as described in Wang, H., Chen, X., and Fisher, E. A. (1993) J Clin Invest 91(4), 1380-9.
To determine whether the proteasome mediated Ω-3 fatty acid-induced apoB degradation, rat hepatoma cells were incubated at 37° C. for 4 hr in [^35S]methionine-containing medium supplemented with either BSA or EPA/BSA complexes in the absence or presence of the proteasome inhibitor, lactacystin ([…]; purchased from the laboratory of Dr. E. J. Corey, Harvard University). Samples of cell lysates and conditioned media were subjected to immunoprecipitation analysis with anti-apoB antiserum, followed by SDS-PAGE and fluorography. […]

[2] = system: 125I-LDL; assay: Degradation of exogenously added 125I-LDL (lysosomal inhibition control); type: cell-based, rat
Experimental: (§1) To determine whether the proteasome mediated Ω-3 fatty acid-induced apoB degradation, rat hepatoma cells were incubated at 37° C. for 4 hr in [^35S]methionine-containing medium supplemented with either BSA or EPA/BSA complexes in the absence or presence of the proteasome inhibitor, lactacystin ([…]; purchased from the laboratory of Dr. E. J. Corey, Harvard University). Samples of cell lysates and conditioned media were subjected to immunoprecipitation analysis with anti-apoB antiserum, followed by SDS-PAGE and fluorography. To determine whether Ω-3 fatty acids targeted apoB to lysosomal degradation, a similar experiment was performed substituting ammonium chloride (40 mM) for lactacystin.
(§2) More evidence against the involvement of re-uptake in Ω-3 fatty acid-induced degradation of apoB is based on the knowledge that lipoproteins captured by either LDL receptors (Brown, M. S., and Goldstein, J. L. (1986) Science 232(4746), 34-47) or heparan sulfate proteoglycans (Williams, K. J. et al. (1992) J Biol Chem 267(19), 13284-92; and Fuki, I. V. et al. (2000) J Biol Chem 275(33), 25742-50) are directed to lysosomes. Thus, rat primary hepatocytes cells were treated with either OA or DHA in the absence or presence of ammonium chloride, a lysosomal inhibitor. […]

[3] = system: rat primary hepatocytes; assay: Lysosomal inhibition and DHA-induced degradation of newly synthesized apoB; type: cell-based; details: with lysosomal inhibitor
Experimental: as §1, §2

[4] = system: rat primary hepatocytes; assay: Basal apoB100 degradation (pulse-chase recovery) in rat primary hepatocytes; type: cell-based; details: FIG. 16A
[5] = system: rat primary hepatocytes; assay: TBARS assay of ROS in rat primary hepatocytes; type: cell-based; details: FIG. 16B
[6] = system: rat hepatoma cells; assay: TBARS assay of ROS in cell lysates of rat hepatoma cells; type: cell-based; details: co-treatment with DHA, FIG. 13C
Experimental: FIG. 13 illustrates that either an iron chelator (DFX) or lipid antioxidants block DHA-stimulated apoB degradation and reactive oxygen species (ROS) production. Rat hepatoma cells were plated in culture wells and pre-incubated in media containing either DHA or DHA with one of the indicated compounds. Radiolabeled methionine/cysteine was added to the culture media for 15 minutes, after which time, the culture media were replaced by fresh media identical in composition except that radiolabeled methionine/cysteine were replaced by unlabeled methionone/cysteine. The recovery of labeled apoB100 ([^35S]-apoB100) from the media and cell lysate was determined at the indicated time points (with time 0 being the point when the fresh media were applied to the cells) by immunoprecipitating apoB species with a rabbit polyclonal antibody to rat apoB, resuspending the immunoprecipitates, combining aliquots from cell lysate and media samples from each well, resolving the protein contents of the combined immunoprecipitates by SDS-polyacrylamide gel electrophoresis (SDS-PAGE), and exposing the resultant gels to X-ray film in order to visualize the labeled apoB bands. In panel A are shown representative signals for radiolabeled apoB100 in each of the treatment conditions. […] For each treatment, there were at least 2 wells/treatment for each time point and the entire experiment repeated. The signal intensities of the apoB100 bands were quantified by densitometry and the mean relative recoveries (the % of the 15 minute, or initial, value still remaining at 120 minutes) ±SEM are shown in panel B. Note that the visual impressions observable in panel A are confirmed by the quantitative analysis; i.e., there is a substantial increase in labeled apoB100 recovery with any of the co-treatments. In panel C, the ROS content of the cell lysates at the end of the experiment was measured by the standard TBARS assay (Stocks et al., 1974, Clin Sci Mol Med 47,215-222). Note that compared to control (BSA), DHA induced a large increase in TBARS, as expected because of its high content on unsaturated bonds. […] FIG. 15 illustrates that AA stimulates apoB100 degradation and increases ROS. […] Note in the upper panel that the combined recovery (from two separate wells/time point) of radiolabeled apoB100 decreased from 15 to 120 minutes, indicating significant apoB100 degradation had occurred in the presence of AA. […] In addition to being a source of ROS, AA can also be converted by cyclooxygenase (COX) to bioactive prostaglandin compounds. We therefore repeated the experiment with AA but with co-treatment by the COX inhibitor aspirin.

[7] = system: rat hepatoma cells; assay: Pulse-chase recovery of [35S]-apoB100 (apoB100 degradation) in rat hepatoma cells; type: cell-based; details: co-treatment with DHA, FIG. 13A and 13B
Experimental: FIG. 13 illustrates that either an iron chelator (DFX) or lipid antioxidants block DHA-stimulated apoB degradation and reactive oxygen species (ROS) production. Rat hepatoma cells were plated in culture wells and pre-incubated in media containing either DHA or DHA with one of the indicated compounds. Radiolabeled methionine/cysteine was added to the culture media for 15 minutes, after which time, the culture media were replaced by fresh media identical in composition except that radiolabeled methionine/cysteine were replaced by unlabeled methionone/cysteine. The recovery of labeled apoB100 ([^35S]-apoB100) from the media and cell lysate was determined at the indicated time points (with time 0 being the point when the fresh media were applied to the cells) by immunoprecipitating apoB species with a rabbit polyclonal antibody to rat apoB, resuspending the immunoprecipitates, combining aliquots from cell lysate and media samples from each well, resolving the protein contents of the combined immunoprecipitates by SDS-polyacrylamide gel electrophoresis (SDS-PAGE), and exposing the resultant gels to X-ray film in order to visualize the labeled apoB bands. In panel A are shown representative signals for radiolabeled apoB100 in each of the treatment conditions. […] For each treatment, there were at least 2 wells/treatment for each time point and the entire experiment repeated. The signal intensities of the apoB100 bands were quantified by densitometry and the mean relative recoveries (the % of the 15 minute, or initial, value still remaining at 120 minutes) ±SEM are shown in panel B. Note that the visual impressions observable in panel A are confirmed by the quantitative analysis; i.e., there is a substantial increase in labeled apoB100 recovery with any of the co-treatments. In panel C, the ROS content of the cell lysates at the end of the experiment was measured by the standard TBARS assay (Stocks et al., 1974, Clin Sci Mol Med 47,215-222). Note that compared to control (BSA), DHA induced a large increase in TBARS, as expected because of its high content on unsaturated bonds.
FIG. 14 illustrates that DHA, but not saturated MA, induces apoB100 degradation in rat hepatoma cells. An experiment similar to the one described in FIG. 13 was performed, with the following changes: A) The immunoprecipitates from cell lysate and media samples were not combined, but separately analyzed. B) In addition to the 15 and 120 minute time points, apoB recovery was determined at 30 minutes. C) In addition to DHA, the effects of the fatty acid myristic (MA) were also tested because it has no unsaturated bonds and should not give rise to ROS.
FIG. 15 illustrates that AA stimulates apoB100 degradation and increases ROS. […] Note in the upper panel that the combined recovery (from two separate wells/time point) of radiolabeled apoB100 decreased from 15 to 120 minutes, indicating significant apoB100 degradation had occurred in the presence of AA. […] In addition to being a source of ROS, AA can also be converted by cyclooxygenase (COX) to bioactive prostaglandin compounds. We therefore repeated the experiment with AA but with co-treatment by the COX inhibitor aspirin.
To further explore the underlying mechanisms, rat hepatoma cells or primary hepatocytes were incubated with the Ω-3 fatty acid DHA complexed to BSA, while blocking candidate cellular mediators. […] There was, however, strong evidence against a role for calcium. Chelation of intracellular Ca^++ with BAPTA-AM, pharmacologic blockage of Ca^++ channels, depletion of the ER-calcium pool, and increasing Ca++ influx with an ionophore each had no effect. Because EGTA also chelates Fe^+++, and DHA is subject to Fe^+++-dependent peroxidation, the role of this lipid modification was examined. As shown in FIG. 13A and 13B, Desferroxamine (DFX), a chelator of Fe^+++, the antioxidant vitamin E (Vit E), and the synthetic antioxidant BHT, each inhibited DHA-stimulated apoB100 degradation by ˜60%.

Row | Compound | cell toxicity assessed by TCA-PTA precipitation analysis [1] | inhibition of the degradation of exogenously added 125I-LDL ([2]; ammonium chloride 40 mM) | degradation of 125I-LDL ([2]; rat primary hepatocytes) | DHA-induced degradation of newly synthesized apoB [3] | basal level of apoB degradation [4] | ROS level (TBARS) [5] | DHA-increased ROS, TBARS assay, with co-treatment [6] | inhibition of DHA-stimulated apoB100 degradation [7]
1 | Cl.N [ammonium chloride] | no evidence of cell toxicity | > 80% | decreased | no decrease |  |  |  | 
2 | vitamin E [Vit E] |  |  |  |  | essentially reversed | reduced | reduced | ~60%
